The values that follow come from patent publication US20050026836A1, “Composition for the treatment of damaged tissue” (priority 1999, published 2005).

One assay deals with uPA and MMP-3. Kind of assay: Inhibition of uPA and MMP-3-mediated KGF-2 degradation (dual protease assay). Type of assay: biochemical, human. As to conditions: uPA and MMP-3 together / KGF-2; inhibitors used (100 μM), alone or in combination. As for the experimental part: The extent of proteolysis of the growth factors was assayed by incubating TGF-β2, VEGF, PDGF-BB and KGF-2 with the proteases uPA, plasmin, MMP-3 and MMP-13 in assay buffer (either uPA/plasmin buffer, 50 mM tris-HCl, pH 7.4 or MMP assay buffer, 100 mM Tris, 10 mM NaCl, 10 mM CaCl2, 0.05% (w/v) Brij 35, pH 7.5). […] The growth factors were added to the incubation mixture at a final concentration of […], unless otherwise stated.
The effects of uPA were determined by incubation at a typical final concentration of 25 μg/ml (1500 U/ml) with each growth factor. The effects of plasmin were determined at a typical final concentration of 0.1 mg/ml by incubation with the individual growth factors in assay buffer. MMP-3 and -13 were incubated at a typical final concentration of 10 nM with the growth factors in assay buffer. Dual protease assays carried out with uPA and MMP-3 together were performed in 100 mM Tris, […], 10 mM CaCl2, 0.05% (w/v) Brij 35, pH 7.5. All incubations were performed in siliconised tubes (Sigma Aldrich, UK).
The inhibitors used in these experiments were compound 9454, compound 9470 and compound 5214. These were dissolved in DMSO at a concentration of 10 mM. Typical final concentrations for these inhibitors were in the range of 100 μM to 10 nM. Aprotinin was dissolved in the Tris buffer at 10 mg/ml and used at a typical concentration of 10 μg/ml. […]

Assay [1] addresses T1, catalytic domain human MMP-1 (Homo sapiens, UniProt P03956).
T1 construct: made in house
T1 sequence (P03956 100-269 limits assumed): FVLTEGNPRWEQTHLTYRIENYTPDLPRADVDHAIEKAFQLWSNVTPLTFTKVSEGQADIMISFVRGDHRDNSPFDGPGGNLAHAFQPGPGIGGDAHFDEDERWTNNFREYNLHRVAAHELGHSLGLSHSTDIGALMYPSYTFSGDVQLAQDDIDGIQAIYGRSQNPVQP
The assay can be described thus: MMP-1 fluorogenic inhibition assay. It counts as biochemical. As to conditions: * limited by compound solubility; read-out: Calculated Ki(nM) MMP-1. On the procedure: All enzymes were pre-activated at 37° C. with aminophenylmercuric acetate (APMA) or trypsin before being made up to the final concentrations used in the assay.
For MMP-1, the assay buffer used was 50 mM Tris, 200 mM NaCl, 5 mM CaCl2, 20 μM ZnCl2, 0.05% (w/v) Brij 35, pH 7.5. […] For MMP-13, the assay buffer used was 50 mM Tris, pH 7.5, 200 mM NaCl, 5 mM CaCl2, […] and 0.02% (w/v) Brij 35.
The incubation was performed at 37° C. for 60 minutes.
For MMP-2, the final assay concentrations of inhibitors used were 1000, 800, 600, 400, 200 and 100 nM. For MMP-3, the final assay concentrations of inhibitors used were 5, 4, 3, 2, 1 and 0.5 nM. For MMP-9 and MMP-14, the final assay concentrations of inhibitors used were 5, 4, 3, 2, 1 and 0.5 μM.
All assays were carried out in a black 96-well plate with a final volume of 100 μl in each well. Inhibitors were dissolved in dimethylsulphoxide (DMSO) to 1 mM. Solutions were then serially diluted in buffer to give the final concentrations shown.
These were estimated using the following equation: IC50=(Ki*[…], where S is the substrate concentration and Km the Michaelis-Menton coefficient. Serine Protease Assays

SMILES strings stand for the structures.

As for `COC[C@@H](NC(=O)[C@@H](NC(=O)[C@H](CCCc1ccc(-c2cccc(OC)c2)c(C)c1)CC(=O)O)C(C)(C)C)c1ccccc1` [compound 9454, (3R)-3-({[(1S)-2,2-Dimethyl-1-({[(1S)-2-methoxy-1-phenylethyl]amino}carbonyl)propyl]amino}carbonyl)-6-(3′-methoxy-2-methylbiphen-4-yl)hexanoic acid], the “Percentage inhibition of proteolysis” value with uPA and MMP-3 stood at 16.3. Besides, the Ki in assay [1] was more than 19400 nM.

Usually Ki stands for a measure of affinity in units of concentration, obtained from inhibition or displacement.
